Source: patent publication US5118705A, “Water soluble salts of purpuromycin and pharmaceutical formulations thereof” (Gruppo Lepetit S.p.A., priority 1990, dated 1992)
≈ marks a conversion by molar mass, not a printed value. Counter-ions that a name gives are not always drawn. Like-named read-outs stand apart in the source and are kept apart here.

Tests used:
[1] = system: Trichomonas vaginalis strain TVL; assay: Activity against Trichomonas vaginalis, two-fold tube dilution method; format: cell-based
Procedure: Trichomonas vaginalis (applicant's internal code TVL) was grown on Trichomonas Culture Medium Base (Merck) plus 10% heat treated horse serum. Inoculum: approximately 10^5 organisms/ml. Incubation: 48 hours at 37° C.

[2] = system: Gardnerella vaginalis ATCC 14018 and other 11 clinical isolates; assay: Activity against Gardnerella vaginalis, standard two fold dilution methods; conditions: for Number of strains with MIC of 8 mcg/ml: MIC 8 mcg/ml; for Number of strains with MIC of 32 mcg/ml: MIC 32 mcg/ml
Procedure: The strains were grown on Casman medium (Difco) plus 5% (v/v) whole rabbit blood and 0.15 (v/v) lysed rabbit blood. Inoculum size: approximately 10^4 colony forming units per spot. Incubation in an anaerobic hood: 48 hours at 37° C.

[3] = system: Bacteroides fragilis ATCC 23745; assay: In vitro activity, M.I.C., microbroth dilution; format: cell-based; conditions: salts calculated as weight of purpuromycin, 37° C., 48 h, anaerobic hood
Procedure: (§1) MIC were determined by the microbroth dilution test. Bacteria were grown at 37° C., fungi at 30° C. Incubation was for 20 h, except for Propionibacterium acnes, Bacteroides fragilis, Neisseria gonorrhoeae, Haemophilus influenzae (48 h) and Trichophyton mentagrophytes (72h) Neisseria gonorrhoeae and Haemophilus influenzae were incubated in a CO2 -enriched (5%) atmosphere; Propionibacterium acnes and Bacteroides fragilis in an anaerobic hood. Media used were: Oxoid Iso-sensitest broth (Staphylococci, Enterococcus faecalis and Escherichia coli); Difco Todd-Hewitt broth (streptococci); Difco GC base broth with 1% BBL IsoVitaleX (Neisseria gonorrhoeae); Difco Brain-Heart Infusion broth with 1% Difco supplement C (Haemophilus influenzae); Difco Wilkins-Chalgren broth (Propionibacterium acnes and Bacteroides fragilis); Difco Yeast Nitrogen Base broth with 1.5 g/1 asparagine (Candida albicans); Difco Sabouraud-dextrose broth (Trichophyton mentagrophytes). Inocula were approximately 10^4 CFU/ml.

[4] = system: Candida albicans SKF 2270; assay: In vitro activity, M.I.C., microbroth dilution; format: cell-based; conditions: salts calculated as weight of purpuromycin, 30° C., 20 h
Procedure: as §1

[5] = system: Enterococcus faecalis ATCC 7080; assay: In vitro activity, M.I.C., microbroth dilution; format: cell-based; conditions: salts calculated as weight of purpuromycin, 37° C., 20 h
Procedure: as §1

[6] = system: Escherichia coli SKF 12140; assay: In vitro activity, M.I.C., microbroth dilution; format: cell-based; conditions: salts calculated as weight of purpuromycin; 37° C., 20 h
Procedure: as §1

[7] = system: Haemophilus influenzae ATCC 19418; assay: In vitro activity, M.I.C., microbroth dilution; format: cell-based; conditions: salts calculated as weight of purpuromycin; 37° C., 48 h, 5% CO2
Procedure: as §1

[8] = system: Neisseria gonorrhoeae L 997; assay: In vitro activity, M.I.C., microbroth dilution; format: cell-based; conditions: salts calculated as weight of purpuromycin, 37° C., 48 h, 5% CO2
Procedure: as §1

[9] = system: Propionibacterium acnes ATCC 6919; assay: In vitro activity, M.I.C., microbroth dilution; format: cell-based; conditions: salts calculated as weight of purpuromycin, 37° C., 48 h, anaerobic hood
Procedure: as §1

Staph. aureus Tour L 165 = assay: In vitro activity, M.I.C., microbroth dilution; format: cell-based; conditions: salts calculated as weight of purpuromycin, 37° C., 20 h
Procedure: as §1

[10] = system: Staph. epidermidis ATCC 12228; assay: In vitro activity, M.I.C., microbroth dilution; format: cell-based; conditions: salts calculated as weight of purpuromycin, 37° C., 20 h
Procedure: as §1

Staph. haemolyticus L602 = assay: In vitro activity, M.I.C., microbroth dilution; format: cell-based; conditions: salts calculated as weight of purpuromycin, 37° C., 20 h
Procedure: as §1

Strep. pneumoniae L44 = assay: In vitro activity, M.I.C., microbroth dilution; format: cell-based; conditions: salts calculated as weight of purpuromycin; 37° C., 20 h
Procedure: as §1

Strep. pyogenes L49 = assay: In vitro activity, M.I.C., microbroth dilution; format: cell-based; conditions: salts calculated as weight of purpuromycin, 37° C., 20 h
Procedure: as §1

[11] = system: Trichophyton mentagrophytes SKF 17410; assay: In vitro activity, M.I.C., microbroth dilution; format: cell-based; conditions: salts calculated as weight of purpuromycin, 30° C., 72 h
Procedure: as §1

[12] = system: Trichomonas vaginalis TVL; assay: In vitro activity, M.I.C., microtiter trays; format: cell-based; conditions: salts calculated as weight of purpuromycin, 48 h, anaerobic hood, 37° C.
Procedure: MIC were performed in flat-bottomed microtiter trays, with 0.2 ml per well. The medium was TYM modified basal medium (Merck) plus 10% horse serum (treated to inactivate complement). The inoculum was ca. 10^5 organisms/ml; incubation was for 48 h in an anaerobic hood (37° C.).The microtiter wells were read using an inverted light microscope. The MIC was taken as the lowest concentration at which no live (mobile) protozoa were seen.

Gardnerella vaginalis = assay: In vitro activity, M.I.C., agar dilution; format: cell-based; conditions: salts calculated as weight of purpuromycin, ATCC 14018 and 10 clinical isolates, all same M.I.C., inoculum ca. 10^5 CFU, 48 h
Procedure: **The assay was carried out on strain ATCC 14018 and 10 clinical isolates
Incubation was for 48 h in an anaerobic hood (37° C.); inoculum ca. 10^5 CFU.

[13] = system: Candida albicans strain SKF 2270; assay: Topical antifungal activity in ovariectomized rats (yeast vaginal infection); format: in vivo, rats (Charles River); conditions: twice daily for three days
Procedure: The effectiveness of the water soluble salts of purpuromycin in the topical treatment of yeast vaginal infection was also tested in ovariectomized rats (Charles River) treated subcutaneously with 4 mg of estradiol benzoate approximately two weeks after ovariectomy. Five days later they were inoculated intravaginally with approximately 5×10^6 colony forming units (CFU) of Candida albicans strain SKF 2270 in 25 microliters of Nutrient Broth (no.2, Oxoid) containing 15% (vol/vol) of glycerol. Topical intravaginal therapy was twice daily for three days, starting one day after infection, with 100 microliters of a water soluble salt of purpuromycin suspension in a mixture of 10:90 DMSO-polyethylene glycol 400, corresponding to 2 or 5 mg/rat/treatment. The day after the last treatment, vaginal smear samples (calibrated 10 microliter loops) were diluted and plated for viable organism counts on Sabouraud agar (Difco). Each group contained 10 animals.

[14] = Solubility and pH of solution; format: physicochemical
[15] = system: Candida albicans ATCC 10231; assay: Activity against Candida strains, two-fold dilution method; format: cell-based; conditions: Candida albicans, ATCC10231, 20 h; comparative tests, antibacterial agents; read-out: M.I.C.
Procedure: (§2) This set of experiments included also one strain each of two other Candida species, Candida tropicalis and Candida kruzei. The M.I.C. were determined by the two-fold dilution method in buffered (0.01 M phosphate buffer, pH 7.4) yeast nitrogen base medium (Difco) supplemented with 1.5 g/liter asparagine in microtiter trays. Inocula were approximately 10^4 colony forming units/ml. Incubation was for 20 h at 30° C. Purpuromycin was dissolved in DMSO and added to the cultures as above.

[16] = system: Candida albicans SKF 2270; assay: as above; format: cell-based; conditions: Candida albicans, SKF2270, 20 h; comparative tests, antibacterial agents; read-out: M.I.C.
Procedure: as §2

[17] = MIC >128 mcg/ml, 12 strains tested

SMILES: C[C@@H]1[C@H](O)[C@@H](C)/C=C/C=C/C=C/C=C/C=C/C=C/C=C/[C@H](O[C@@H]2O[C@H](C)[C@@H](O)[C@H](N)[C@@H]2O)C[C@@H]2O[C@](O)(C[C@@H](O)C[C@@H](O)[C@H](O)CC[C@@H](O)C[C@@H](O)CC(=O)O[C@H]1C)C[C@H](O)[C@H]2C(=O)O [Amphotericin B]
- MIC ([1]; Trichomonas vaginalis, 48 h): 64 µg/mL (≈ 69.3 µM)

SMILES: Clc1ccccc1C(c1ccccc1)(c1ccccc1)n1ccnc1 [Clotrimazole]
- MIC ([1]; Trichomonas vaginalis, 48 h): 64 µg/mL (≈ 186 µM)
- Number of strains with MIC of 8 mcg/ml ([2]; 12 strains tested): 2 strains
- Number of strains with MIC of 16 mcg/ml ([2]; MIC 16 mcg/ml, 12 strains tested): 1 strains
- Number of strains with MIC of 32 mcg/ml ([2]; 12 strains tested): 2 strains
- Number of strains with MIC of >128 mcg/ml [2, 17]: 2 strains

SMILES: CC(=O)N1CCN(c2ccc(OCC3COC(Cn4ccnc4)(c4ccc(Cl)cc4Cl)O3)cc2)CC1 (stereo not drawn) [Ketoconazole]
- MIC ([1]; Trichomonas vaginalis, 48 hours at 37° C., read-out: MIC): > 128 µg/mL

SMILES: Clc1ccc(COC(Cn2ccnc2)c2ccc(Cl)cc2Cl)c(Cl)c1 (stereo not drawn) [Miconazole]
- MIC ([1]; Trichomonas vaginalis, 48 h): 32 µg/mL (≈ 76.9 µM)
- MIC ([2]; Gardnerella vaginalis, read-out: MIC on resistant strains): > 128 µg/mL
- Number of strains with MIC of 4 mcg/ml ([2]; MIC 4 mcg/ml, 12 strains tested): 1 strains
- Number of strains with MIC of 8 mcg/ml ([2]; 12 strains tested): 7 strains
- Number of strains with MIC of 32 mcg/ml ([2]; 12 strains tested): 2 strains
- Number of strains with MIC of >128 mcg/ml [2, 17]: 2 strains

SMILES: C[C@@H]1[C@H](O)[C@@H](C)/C=C/C=C/CC/C=C/C=C/C=C/C=C/C(O[C@H]2O[C@H](C)[C@@H](O)[C@H](N)[C@@H]2O)CC2O[C@](O)(CC(O)C(O)CCC(O)CC(O)CC(O)CC(=O)O[C@H]1C)CC(O)C2C(=O)O (stereo partly drawn) [Nystatin]
- MIC ([1]; 48 hours at 37° C.): > 128 µg/mL
- Number of strains with MIC of >128 mcg/ml [2]: 12 strains
- MIC on resistant strains ([2]; strains resistant to the named drug): > 128 micrograms/ml

SMILES: COC(=O)c1cc2cc3c(c(O)c2c(=O)o1)OC1(Cc2c(O)c4c(c(O)c2O1)C(=O)C(OC)=CC4=O)CC3O [Purpuromycin salt with L-lysine (1:1.5), Salt of purpuromycin with L-lysine]
- MIC ([3]; Bacteroides fragilis, ATCC23745): 0.13 µg/mL
- MIC ([4]; Candida albicans, SKF2270): 1 µg/mL
- MIC ([5]; Enterococcus faecalis, ATCC7080): 0.06 µg/mL
- M.I.C. [6]: 32 mg/L
- M.I.C. [7]: 0.13 mg/L
- MIC ([8]; Neisseria gonorrhoeae, L997): 0.06 µg/mL
- MIC ([9]; Cutibacterium acnes, ATCC6919): 0.06 µg/mL
- MIC (Staph. aureus Tour L 165; Staphylococcus aureus, TOURL165): 0.06 µg/mL
- MIC ([10]; Staphylococcus epidermidis, ATCC12228): 0.06 µg/mL
- MIC (Staph. haemolyticus L602; Staphylococcus haemolyticus, L602): 0.06 µg/mL
- M.I.C. (Strep. pneumoniae L44): 0.13 mg/L
- MIC (Strep. pyogenes L49; Streptococcus pyogenes, L49): 0.06 µg/mL
- MIC ([11]; Trichophyton mentagrophytes, SKF17410): 1 µg/mL
- MIC ([12]; Trichomonas vaginalis): 4 µg/mL
- MIC (Gardnerella vaginalis; Gardnerella vaginalis): 16 µg/mL
- Mean log10 CFU/smear sample ± SD ([13]; 2 mg/rat/treatment intravaginal, vehicle 3.87 ± 0.50, P < 0.01 vs group 1 controls): 2.60 ± 0.49 log10 CFU/smear sample
- numbers of viable yeasts cell/sample ([13]; topical intravaginal): significantly reduced numbers of viable yeasts cell/sample
- pH value of a 0.5% (w/v) solution ([14]; distilled water): 8.5
- solubility in distilled water ([14]; room temperature, calculated as purpuromycin, listed as Example 2): 7400 µg/mL

SMILES: COC(=O)c1cc2cc3c(c(O)c2c(=O)o1)OC1(Cc2c(O)c4c(c(O)c2O1)C(=O)C(OC)=CC4=O)CC3O (stereo not drawn) [Purpuromycin salt with TRIS (1:1.5), Salt of purpuromycin with tris-(hydroxymethyl) aminomethane]
- M.I.C. [3]: 0.13 mg/L
- M.I.C. [4]: 1 mg/L
- M.I.C. [5]: 0.06 mg/L
- M.I.C. [6]: 16 mg/L
- M.I.C. [7]: 0.06 mg/L
- M.I.C. [8]: 0.06 mg/L
- M.I.C. [9]: 0.06 mg/L
- M.I.C. (Staph. aureus Tour L 165): 0.06 mg/L
- M.I.C. [10]: 0.06 mg/L
- M.I.C. (Staph. haemolyticus L602): 0.06 mg/L
- M.I.C. (Strep. pneumoniae L44): 0.13 mg/L
- M.I.C. (Strep. pyogenes L49): 0.06 mg/L
- M.I.C. [11]: 1 mg/L
- M.I.C. [12]: 4 mg/L
- M.I.C. (Gardnerella vaginalis): 16 mg/L
- pH value of the solution ([14]; solution at 4.5 mg/ml in distilled water): 8.8
- solubility ([14]; water, room temperature, calculated as purpuromycin, read-out: solubility in distilled water): 4500 µg/mL

SMILES: CC1(C)S[C@@H]2[C@H](NC(=O)[C@H](N)c3ccccc3)C(=O)N2[C@H]1C(=O)O [ampicillin]
- MIC [15]: > 128 µg/mL
- MIC [16]: > 128 µg/mL
